# Laboratory results taken from article PMC8899467 (Frontiers in Pharmacology, 2022).
# Legend:
# [1] = biological target: T1, bovine serum albumin (BSA) (Bos taurus, UniProt P02769); test: intrinsic Trp fluorescence quenching; assay type: binding; conditions: 0.8 mg/ml BSA, Tyrode buffer pH 7.4, 37 °C, 15 min
# T1 construct: gene ALB; native mature serum albumin
# [2] = biological target: T2, bovine fibrinogen (Bos taurus, UniProt P02672+P02676+P12799); test: intrinsic Trp fluorescence quenching; assay type: binding; conditions: 0.8 mg/ml fibrinogen, Tyrode buffer pH 7.4, 37 °C, 15 min
# T2 construct: gene FGA; native plasma protein, Sigma-Aldrich; hexamer
# T2 sequence (P02672 20-615): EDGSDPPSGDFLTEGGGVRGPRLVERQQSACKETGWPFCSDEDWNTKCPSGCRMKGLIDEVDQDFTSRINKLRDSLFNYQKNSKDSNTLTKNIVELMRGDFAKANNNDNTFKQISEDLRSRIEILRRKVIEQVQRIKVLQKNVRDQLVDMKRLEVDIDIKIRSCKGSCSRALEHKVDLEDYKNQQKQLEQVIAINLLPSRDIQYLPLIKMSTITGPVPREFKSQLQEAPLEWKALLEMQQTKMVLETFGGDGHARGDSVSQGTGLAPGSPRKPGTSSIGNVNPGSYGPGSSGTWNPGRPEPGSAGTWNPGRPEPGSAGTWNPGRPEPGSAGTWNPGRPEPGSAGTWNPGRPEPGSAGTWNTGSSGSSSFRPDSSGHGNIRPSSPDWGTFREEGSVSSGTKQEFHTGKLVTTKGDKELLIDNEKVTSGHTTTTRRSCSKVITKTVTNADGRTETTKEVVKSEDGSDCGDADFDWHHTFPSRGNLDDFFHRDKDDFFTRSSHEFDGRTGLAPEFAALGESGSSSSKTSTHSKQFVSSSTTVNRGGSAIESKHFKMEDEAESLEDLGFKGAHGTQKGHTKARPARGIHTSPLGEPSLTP
# T2 sequence (P02676 1-468): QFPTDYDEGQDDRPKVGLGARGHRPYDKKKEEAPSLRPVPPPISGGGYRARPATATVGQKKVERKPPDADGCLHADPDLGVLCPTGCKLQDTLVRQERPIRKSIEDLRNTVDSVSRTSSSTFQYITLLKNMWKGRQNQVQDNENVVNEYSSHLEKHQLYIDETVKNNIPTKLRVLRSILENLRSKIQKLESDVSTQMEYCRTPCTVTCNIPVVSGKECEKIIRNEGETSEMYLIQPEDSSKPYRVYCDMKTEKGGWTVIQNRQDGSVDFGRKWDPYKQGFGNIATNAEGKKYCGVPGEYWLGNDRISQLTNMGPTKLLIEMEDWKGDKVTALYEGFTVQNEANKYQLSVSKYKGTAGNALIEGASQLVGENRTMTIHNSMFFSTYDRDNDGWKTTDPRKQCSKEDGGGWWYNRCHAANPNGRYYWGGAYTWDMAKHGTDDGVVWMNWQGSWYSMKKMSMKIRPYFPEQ
# T2 sequence (P12799 25-444): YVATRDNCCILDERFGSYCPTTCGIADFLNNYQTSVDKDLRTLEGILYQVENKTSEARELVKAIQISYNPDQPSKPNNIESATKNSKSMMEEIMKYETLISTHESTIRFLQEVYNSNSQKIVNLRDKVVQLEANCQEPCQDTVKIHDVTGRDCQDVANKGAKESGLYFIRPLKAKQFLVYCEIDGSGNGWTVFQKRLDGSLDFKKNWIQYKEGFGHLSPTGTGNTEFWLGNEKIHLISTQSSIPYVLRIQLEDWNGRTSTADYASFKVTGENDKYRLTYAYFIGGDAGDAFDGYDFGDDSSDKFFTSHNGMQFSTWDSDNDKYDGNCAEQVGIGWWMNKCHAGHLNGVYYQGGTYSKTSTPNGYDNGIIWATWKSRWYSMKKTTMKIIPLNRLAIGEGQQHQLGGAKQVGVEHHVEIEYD
# T1 sequence (P02769 25-607): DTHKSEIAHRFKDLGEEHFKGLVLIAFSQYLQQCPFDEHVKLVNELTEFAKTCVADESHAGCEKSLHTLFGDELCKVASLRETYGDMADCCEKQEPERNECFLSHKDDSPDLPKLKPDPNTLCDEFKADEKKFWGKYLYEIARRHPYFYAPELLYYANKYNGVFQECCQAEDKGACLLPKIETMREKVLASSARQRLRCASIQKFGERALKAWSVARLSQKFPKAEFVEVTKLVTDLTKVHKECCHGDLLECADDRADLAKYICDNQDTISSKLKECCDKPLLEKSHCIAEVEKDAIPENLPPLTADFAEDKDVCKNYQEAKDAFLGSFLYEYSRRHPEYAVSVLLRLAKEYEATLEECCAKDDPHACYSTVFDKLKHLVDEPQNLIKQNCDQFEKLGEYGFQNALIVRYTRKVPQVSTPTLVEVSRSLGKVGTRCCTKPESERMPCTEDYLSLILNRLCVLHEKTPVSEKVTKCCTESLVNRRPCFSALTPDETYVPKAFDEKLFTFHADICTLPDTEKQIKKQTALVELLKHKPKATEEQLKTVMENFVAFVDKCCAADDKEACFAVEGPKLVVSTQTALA
smiles,measurement,setting,value
C[C@@H]1O[C@@H](OC[C@H]2O[C@@H](Oc3c(-c4ccc(O)c(O)c4)oc4cc(O)cc(O)c4c3=O)[C@H](O)[C@@H](O)[C@@H]2O)[C@H](O)[C@H](O)[C@H]1O [rutin],intrinsic Trp fluorescence quenching,[1],"or albumin (Figures 6C,D) decreased the fluorescence of their Trp residues"
same,intrinsic Trp fluorescence quenching,[2],"Pre-incubation of rutin and RS with fibrinogen (Figures 6A,B) or albumin (Figures 6C,D) decreased the fluorescence"
